Each compound was assayed against T1, ΔF508-CFTR (Homo sapiens, UniProt P13569, DEL508-508) (assay: Assays for ΔF508-CFTR correction and potentiator properties (membrane potential optical and electrophysiological methods)). Settings: CFTR modulation, % Efficacy.
T1 construct: expressed in transfected cells; host or cells: NIH3T3 mouse fibroblasts stably expressing ΔF508-CFTR for the optical, whole-cell and single-channel assays; Fisher rat epithelial (FRT) cells for Ussing chamber follow-up
Type: cell-based
Excerpt: Assays for Detecting and Measuring ΔF508-CFTR Correction and Potentiator Properties of Compounds
A) Membrane Potential Optical Methods for Assaying ΔF508-CFTR Modulation Properties of Compounds
The optical membrane potential assay utilized voltage-sensitive FRET sensors described by Gonzalez and Tsien (See, Gonzales, J. E. and R. Y. Tsien (1995) “Voltage sensing by fluorescence resonance energy transfer in single cells” Biophys J 69 (4): 1272-80, and Gonzalez, J. E. and R. Y. Tsien (1997) “Improved indicators of cell membrane potential that use fluorescence resonance energy transfer” Chem Biol 4 (4): 269-77) in combination with instrumentation for measuring fluorescence changes such as the Voltage/Ion Probe Reader (VIPR) (See, Gonzalez, J. E., K. Oades, et al. (1999) “Cell-based assays and instrumentation for screening ion-channel targets” Drug Discov Today 4 (9): 431-439).
These voltage sensitive assays are based on the change in fluorescence resonant energy transfer (FRET) between the membrane-soluble, voltage-sensitive dye, DiSBAC2 (3), and a fluorescent phospholipid, CC2-DMPE, which is attached to the outer leaflet of the plasma membrane and acts as a FRET donor. Changes in membrane potential (Vm) cause the negatively charged DiSBAC2(3) to redistribute across the plasma membrane and the amount of energy transfer from CC2-DMPE changes accordingly. The changes in fluorescence emission were monitored using VIPR™ II, which is an integrated liquid handler and fluorescent detector designed to conduct cell-based screens in 96- or 384-well microtiter plates.
To identify small molecules that correct the trafficking defect associated with ΔF508-CFTR; a single-addition HTS assay format was developed. The cells were incubated in serum-free medium for 16 hrs at 37° C. in the presence or absence (negative control) of test compound. As a positive control, cells plated in 384-well plates were incubated for 16 hrs at 27° C. to “temperature-correct” ΔF508-CFTR. The cells were subsequently rinsed 3× with Krebs Ringers solution and loaded with the voltage-sensitive dyes. To activate ΔF508-CFTR, […] and the CFTR potentiator, genistein ([…]), were added along with Cl^−-free medium to each well. The addition of Cl^−-free medium promoted Cl^− efflux in response to ΔF508-CFTR activation and the resulting membrane depolarization was optically monitored using the FRET-based voltage-sensor dyes.
To identify potentiators of ΔF508-CFTR, a double-addition HTS assay format was developed. During the first addition, a Cl^−-free medium with or without test compound was added to each well. After 22 sec, a second addition of Cl^−-free medium containing 2-10 µM forskolin was added to activate ΔF508-CFTR. The extracellular Cl^− concentration following both additions was 28 mM, which promoted Cl^− efflux in response to ΔF508-CFTR activation and the resulting membrane depolarization was optically monitored using the FRET-based voltage-sensor dyes.
• Bath Solution #1: (in mM) NaCl 160, KCl 4.5, CaCl2 2, MgCl2 1, HEPES 10, pH 7.4 with NaOH. • Chloride-free bath solution: Chloride salts in Bath Solution #1 are substituted with gluconate salts. • CC2-DMPE: Prepared as a 10 mM stock solution in DMSO and stored at −20° C. • DiSBAC2(3): Prepared as a 10 mM stock in DMSO and stored at −20° C. Cell Culture
NIH3T3 mouse fibroblasts stably expressing ΔF508-CFTR are used for optical measurements of membrane potential. The cells are maintained at 37° C. in 5% CO2 and 90% humidity in Dulbecco's modified Eagle's medium supplemented with 2 mM glutamine, 10% fetal bovine serum, 1×NEAA, β-ME, 1×pen/strep, and 25 mM HEPES in 175 cm^2 culture flasks. For all optical assays, the cells were seeded at 30,000/well in 384-well matrigel-coated plates and cultured for 2 hrs at 37° C. before culturing at 27° C. for 24 hrs. for the potentiator assay. For the correction assays, the cells are cultured at 27° C. or 37° C. with and without compounds for 16-24 hours.

T1 sequence (P13569 with tags, fused parts or gaps DEL508-508): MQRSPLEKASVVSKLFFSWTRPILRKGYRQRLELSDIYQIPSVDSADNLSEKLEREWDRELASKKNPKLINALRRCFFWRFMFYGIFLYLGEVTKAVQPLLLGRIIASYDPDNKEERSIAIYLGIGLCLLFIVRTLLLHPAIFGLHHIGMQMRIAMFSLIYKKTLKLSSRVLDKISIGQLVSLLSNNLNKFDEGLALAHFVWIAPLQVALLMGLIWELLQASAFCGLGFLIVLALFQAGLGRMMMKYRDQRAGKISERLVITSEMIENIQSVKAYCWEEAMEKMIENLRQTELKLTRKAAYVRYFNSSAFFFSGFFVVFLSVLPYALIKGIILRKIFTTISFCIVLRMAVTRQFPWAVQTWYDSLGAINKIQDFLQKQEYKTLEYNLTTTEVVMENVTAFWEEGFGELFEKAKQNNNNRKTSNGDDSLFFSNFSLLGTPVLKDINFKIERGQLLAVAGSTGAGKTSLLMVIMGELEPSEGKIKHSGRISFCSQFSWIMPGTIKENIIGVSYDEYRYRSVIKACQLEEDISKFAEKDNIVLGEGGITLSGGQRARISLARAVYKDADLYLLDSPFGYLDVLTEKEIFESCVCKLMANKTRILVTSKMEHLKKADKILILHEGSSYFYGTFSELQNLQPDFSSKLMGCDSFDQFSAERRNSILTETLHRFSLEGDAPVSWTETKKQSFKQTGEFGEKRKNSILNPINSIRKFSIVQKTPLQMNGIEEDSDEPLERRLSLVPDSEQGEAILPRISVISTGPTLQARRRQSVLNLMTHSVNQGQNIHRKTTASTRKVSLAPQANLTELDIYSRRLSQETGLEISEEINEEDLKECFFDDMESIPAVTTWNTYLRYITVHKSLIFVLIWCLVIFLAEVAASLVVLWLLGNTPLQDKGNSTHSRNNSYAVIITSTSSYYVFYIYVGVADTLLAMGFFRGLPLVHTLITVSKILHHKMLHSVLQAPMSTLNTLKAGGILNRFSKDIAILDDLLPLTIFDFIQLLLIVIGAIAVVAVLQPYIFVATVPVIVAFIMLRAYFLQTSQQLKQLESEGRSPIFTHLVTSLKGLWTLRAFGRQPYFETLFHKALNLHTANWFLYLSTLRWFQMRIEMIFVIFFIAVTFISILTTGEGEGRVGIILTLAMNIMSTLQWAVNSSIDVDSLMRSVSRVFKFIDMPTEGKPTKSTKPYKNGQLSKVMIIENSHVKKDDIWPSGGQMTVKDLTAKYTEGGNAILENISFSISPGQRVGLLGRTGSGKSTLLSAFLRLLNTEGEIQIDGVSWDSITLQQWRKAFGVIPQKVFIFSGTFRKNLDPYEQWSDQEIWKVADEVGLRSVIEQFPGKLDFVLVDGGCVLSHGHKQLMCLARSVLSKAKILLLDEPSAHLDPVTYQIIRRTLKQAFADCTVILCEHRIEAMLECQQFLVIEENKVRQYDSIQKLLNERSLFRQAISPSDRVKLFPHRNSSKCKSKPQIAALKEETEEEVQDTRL

% Activity | Compound
++ (“++” means between 25% to 100%) | O=C(Nc1nc(-c2ccccc2)c(-c2ccccc2)s1)c1ccc(Cl)c(Cl)c1 [compound 73]
++ (“++” means between 25% to 100%) | O=C(Nc1nc(-c2ccccc2)c(-c2ccccc2)s1)c1ccc(Cl)cc1 [compound 74]
++ (“++” means between 25% to 100%) | Cc1ccccc1C(=O)Nc1nc(-c2ccccc2)cs1 [compound 75]
+++ (“+++” means >100%) | COc1ccccc1C(=O)Nc1nc(-c2ccccc2)cs1 [compound 76]
++ (“++” means between 25% to 100%) | O=C(Nc1nc(-c2ccccc2)cs1)c1ccccc1Cl [compound 77]
++ (“++” means between 25% to 100%) | COc1ccc(C(=O)Nc2nc(-c3ccccc3)cs2)cc1 [compound 78]
++ (“++” means between 25% to 100%) | COc1ccccc1C(=O)Nc1nc(-c2ccccc2OC)cs1 [compound 79]
++ (“++” means between 25% to 100%) | COc1cccc(-c2csc(NC(=O)c3ccccc3OC)n2)c1 [compound 80]
++ (“++” means between 25% to 100%) | COc1cccc(-c2csc(NC(=O)c3ccccc3)n2)c1 [compound 81]
++ (“++” means between 25% to 100%) | COc1cccc(C(=O)Nc2nc(-c3cccc(OC)c3)cs2)c1 [compound 82]
+++ (“+++” means >100%) | COc1cccc(-c2csc(NC(=O)c3ccc(C)cc3)n2)c1 [compound 83]
++ (“++” means between 25% to 100%) | COc1ccc(C(=O)Nc2nc(-c3cccc(OC)c3)cs2)cc1 [compound 84]
++ (“++” means between 25% to 100%) | CC(C)C(=O)Nc1nc(-c2ccccc2)cs1 [compound 85]
++ (“++” means between 25% to 100%) | CC(C)CC(=O)Nc1nc(-c2ccccc2)cs1 [compound 86]
++ (“++” means between 25% to 100%) | CC(C)(C)C(=O)Nc1nc(-c2ccccc2)cs1 [compound 87]
+++ (“+++” means >100%) | Cc1cccc(C(=O)Nc2nc(-c3ccccc3)cs2)c1 [compound 88]
+++ (“+++” means >100%) | O=C(Nc1ncc(Cc2ccccc2)s1)C1c2ccccc2Oc2ccccc21 [compound 89]
+++ (“+++” means >100%) | O=C(Nc1ncc(Cc2ccccc2Cl)s1)C1c2ccccc2Oc2ccccc21 [compound 90]
+++ (“+++” means >100%) | O=C(Nc1ncc(Cc2ccccc2Cl)s1)C(c1ccccc1)C1CCCCC1 (stereo not shown) [compound 91]
++ (“++” means between 25% to 100%) | O=C(Nc1ncc(Cc2ccccc2)o1)C(c1ccccc1)C1CCCCC1 (stereo not shown) [compound 92]
+++ (“+++” means >100%) | O=C(Nc1ncc(Cc2ccccc2)s1)C1c2ccccc2-c2ccccc21 [compound 93]
++ (“++” means between 25% to 100%) | O=C(Nc1ncc(Cc2ccccc2Cl)s1)C(c1ccc(Cl)cc1)c1ccc(Cl)cc1 [compound 95]
++ (“++” means between 25% to 100%) | CCC(C(=O)Nc1ncc(Cc2ccccc2)s1)c1ccccc1 (stereo not shown) [compound 96]

Same assay, conditions: CFTR modulation, tested using the above methods

EC50 | Compound
10 to 25 µM | O=C(Nc1nc(-c2ccccc2)c(-c2ccccc2)s1)c1ccc(Cl)c(Cl)c1 [compound 73]
10 to 25 µM | O=C(Nc1nc(-c2ccccc2)c(-c2ccccc2)s1)c1ccc(Cl)cc1 [compound 74]
10 to 25 µM | Cc1ccccc1C(=O)Nc1nc(-c2ccccc2)cs1 [compound 75]
10 to 25 µM | COc1ccccc1C(=O)Nc1nc(-c2ccccc2)cs1 [compound 76]
10 to 25 µM | O=C(Nc1nc(-c2ccccc2)cs1)c1ccccc1Cl [compound 77]
10 to 25 µM | COc1ccc(C(=O)Nc2nc(-c3ccccc3)cs2)cc1 [compound 78]
10 to 25 µM | COc1ccccc1C(=O)Nc1nc(-c2ccccc2OC)cs1 [compound 79]
10 to 25 µM | COc1cccc(-c2csc(NC(=O)c3ccccc3OC)n2)c1 [compound 80]
10 to 25 µM | COc1cccc(-c2csc(NC(=O)c3ccccc3)n2)c1 [compound 81]
10 to 25 µM | COc1cccc(C(=O)Nc2nc(-c3cccc(OC)c3)cs2)c1 [compound 82]
10 to 25 µM | COc1cccc(-c2csc(NC(=O)c3ccc(C)cc3)n2)c1 [compound 83]
10 to 25 µM | COc1ccc(C(=O)Nc2nc(-c3cccc(OC)c3)cs2)cc1 [compound 84]
10 to 25 µM | CC(C)C(=O)Nc1nc(-c2ccccc2)cs1 [compound 85]
10 to 25 µM | CC(C)CC(=O)Nc1nc(-c2ccccc2)cs1 [compound 86]
10 to 25 µM | CC(C)(C)C(=O)Nc1nc(-c2ccccc2)cs1 [compound 87]
10 to 25 µM | Cc1cccc(C(=O)Nc2nc(-c3ccccc3)cs2)c1 [compound 88]
< 10 µM | O=C(Nc1ncc(Cc2ccccc2)s1)C1c2ccccc2Oc2ccccc21 [compound 89]
< 10 µM | O=C(Nc1ncc(Cc2ccccc2Cl)s1)C1c2ccccc2Oc2ccccc21 [compound 90]
< 10 µM | O=C(Nc1ncc(Cc2ccccc2Cl)s1)C(c1ccccc1)C1CCCCC1 (stereo not shown) [compound 91]
< 10 µM | O=C(Nc1ncc(Cc2ccccc2)o1)C(c1ccccc1)C1CCCCC1 (stereo not shown) [compound 92]
< 10 µM | O=C(Nc1ncc(Cc2ccccc2)s1)C1c2ccccc2-c2ccccc21 [compound 93]
< 10 µM | O=C(Nc1ncc(Cc2ccccc2Cl)s1)C(c1ccc(Cl)cc1)c1ccc(Cl)cc1 [compound 95]
10 to 25 µM | CCC(C(=O)Nc1ncc(Cc2ccccc2)s1)c1ccccc1 (stereo not shown) [compound 96]

Reference: US9249131B2, “Modulators of ATP-binding cassette transporters” (Vertex Pharmaceuticals Incorporated, priority 2003, dated 2016)
